The assay has as its target Dual-Specificity-Tyrosine-Phosphorylation-Regulated Kinase 1B (DYRK1B) (Homo sapiens, UniProt Q9Y463). The experiment in a line: radiometric […]-ATP kinase assay with recombinant DYRK1B and DYRKtide substrate ([…] ATP). The class given is biochemical.

Results on one compound are retold here after paper PMC4872774, “DYRK1B as therapeutic target in Hedgehog/GLI-dependent cancer cells with Smoothened inhibitor resistance” (Oncotarget, 2016).

Dual-Specificity-Tyrosine-Phosphorylation-Regulated Kinase 1B (DYRK1B), sequence (Q9Y463 whole entry): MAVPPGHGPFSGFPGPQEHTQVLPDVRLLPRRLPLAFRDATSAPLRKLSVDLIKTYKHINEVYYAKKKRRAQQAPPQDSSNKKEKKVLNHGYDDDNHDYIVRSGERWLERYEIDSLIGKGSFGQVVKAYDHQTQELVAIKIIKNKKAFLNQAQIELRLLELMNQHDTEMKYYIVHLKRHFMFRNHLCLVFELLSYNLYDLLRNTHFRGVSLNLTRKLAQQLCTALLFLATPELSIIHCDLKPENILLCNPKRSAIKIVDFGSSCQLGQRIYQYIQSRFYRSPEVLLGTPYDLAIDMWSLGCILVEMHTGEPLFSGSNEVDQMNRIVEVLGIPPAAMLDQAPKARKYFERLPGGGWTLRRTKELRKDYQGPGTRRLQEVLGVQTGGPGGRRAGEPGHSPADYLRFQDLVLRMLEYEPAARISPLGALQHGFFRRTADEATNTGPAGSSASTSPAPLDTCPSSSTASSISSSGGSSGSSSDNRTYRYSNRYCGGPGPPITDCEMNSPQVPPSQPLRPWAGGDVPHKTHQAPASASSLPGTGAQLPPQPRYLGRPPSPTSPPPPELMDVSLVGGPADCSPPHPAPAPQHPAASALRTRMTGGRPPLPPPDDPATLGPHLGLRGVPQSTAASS

The IC50 is the concentration that gives 50% inhibition. In the case of `O=C(Nc1nc2cc(C(F)(F)F)ccc2[nH]1)c1csc(-c2ccc3c(c2)CCO3)n1` [DYRKi], the IC50 is 90 nM.
